Measurements taken from US20240358692A1, “TREATMENT OF SCLERODERMA” (Aisa Pharma, Inc., priority 2023, published 2024).

Test system: participants with SSc-RP
Experiment: SHAQ - Alternative Disability Index
Format: in vivo, human
Details: for % change in Alternative Disability Index: SHAQ, mITT Part A; for alternative disability index, Change from Baseline, Mean / alternative disability index, Change from Baseline, Median / alternative disability index, Percent Change from Baseline, Mean / alternative disability index, Percent Change from Baseline, Median / alternative disability index, In Clinic Visit (Day 12), Mean / alternative disability index, In Clinic Visit (Day 12), Median: Modified ITT Population-Part A, tadalafil 5 mg, alone or combined as labelled
From the text: The SHAQ is used to calculate a Disability Index to assess the participant qualify of life. The eight categories assessed by the Disability Index are 1) dressing and grooming, 2) arising, 3) eating, 4) walking, 5) hygiene, 6) reach, 7) grip, and 8) common daily activities. For each of these categories, patients report the amount of difficulty they have in performing two or three specific activities.
There are four possible responses for the Disability Index questions: • Without any difficulty=0 • With some difficulty=1 • With much difficulty=2 • Unable to do=3 • The highest score reported by the patient for any component question of the eight categories determines the score for that category. • If a component question is left blank or the response is too ambiguous to assign a score, then the score for that category is determined by the remaining completed question(s). • If all component questions are blank or if more than one answer is given, then follow up with the respondent is required. • If the respondent's mark is between the response columns, then move it to the closest one. If it's directly between the two, move it to the higher one.
The aid and device variables are not used to calculate the alternative disability index; it is calculated by adding the scores for each of the categories and dividing by the number of categories answered. This gives a score in the 0 to 3 range.

[1] = Cilnidipine 10 mg, SSc patients, PP, Part A
[2] = Cilnidipine 20 mg, SSc patients, PP, Part A
[3] = Pooled Cilnidipine 10 mg and Cilnidipine 10 mg + Tadalafil 5 mg (N = 9), Day 12, PP Population, Part A
[4] = Pooled Cilnidipine (N = 8), Day 12, PP Population, Part A

COCCOC(=O)C1=C(C)NC(C)=C(C(=O)OC/C=C/c2ccccc2)C1c1cccc([N+](=O)[O-])c1 (stereo not drawn) [Cilnidipine]
SHAQ Alternative Disability Index, Percent Change from Baseline, Max [1]: 42.9
SHAQ Alternative Disability Index, Percent Change from Baseline, Mean [1]: 15.87
SHAQ Alternative Disability Index, Percent Change from Baseline, Median [1]: 15.87
SHAQ Alternative Disability Index, Percent Change from Baseline, Min [1]: −11.1,
SHAQ Alternative Disability Index, Percent Change from Baseline, Q1 [1]: −11.11,
SHAQ Alternative Disability Index, Percent Change from Baseline, Q3 [1]: 42.86
% change in Alternative Disability Index (Cilnidipine 20 mg (n = 3)): −42%
SHAQ Alternative Disability Index, Change from Baseline, Max [2]: 0.25
SHAQ Alternative Disability Index, Change from Baseline, Mean [2]: 0.000
SHAQ Alternative Disability Index, Change from Baseline, Median [2]: −0.063
SHAQ Alternative Disability Index, Change from Baseline, Min [2]: −0.13,
SHAQ Alternative Disability Index, Day 12, Max [2]: 0.50
SHAQ Alternative Disability Index, Day 12, Mean [2]: 0.219
SHAQ Alternative Disability Index, Day 12, Median [2]: 0.188
SHAQ Alternative Disability Index, Day 12, Min [2]: 0.00,
SHAQ Alternative Disability Index, Day 12, Q1 [2]: 0.063,
SHAQ Alternative Disability Index, Day 12, Q3 [2]: 0.375
SHAQ Alternative Disability Index, Percent Change from Baseline, Max [2]: 100.0
SHAQ Alternative Disability Index, Percent Change from Baseline, Mean [2]: 5.56
SHAQ Alternative Disability Index, Percent Change from Baseline, Median [2]: −33.33
SHAQ Alternative Disability Index, Percent Change from Baseline, Min [2]: −50.0,
SHAQ Alternative Disability Index, Percent Change from Baseline, Q1 [2]: −50.00,
SHAQ Alternative Disability Index, Percent Change from Baseline, Q3 [2]: 100.00
alternative disability index, Change from Baseline, Mean (Day 12, dose cilnidipine 10 mg): 0.063
alternative disability index, Change from Baseline, Median (Day 12, dose cilnidipine 10 mg): 0.000
alternative disability index, Percent Change from Baseline, Mean (Day 12, dose cilnidipine 10 mg): 15.87%
alternative disability index, Percent Change from Baseline, Median (Day 12, dose cilnidipine 10 mg): 15.87%
alternative disability index, Change from Baseline, Mean (Day 12, dose cilnidipine 20 mg): −0.083
alternative disability index, Change from Baseline, Median (Day 12, dose cilnidipine 20 mg): −0.125
alternative disability index, Percent Change from Baseline, Mean (Day 12, dose cilnidipine 20 mg): −41.67%
alternative disability index, Percent Change from Baseline, Median (Day 12, dose cilnidipine 20 mg): −41.67%
alternative disability index, In Clinic Visit (Day 12), Mean (dose cilnidipine 10 mg): 0.563
alternative disability index, In Clinic Visit (Day 12), Median (dose cilnidipine 10 mg): 0.500
alternative disability index, In Clinic Visit (Day 12), Mean (dose cilnidipine 20 mg): 0.125
alternative disability index, In Clinic Visit (Day 12), Median (dose cilnidipine 20 mg): 0.125
SHAQ Alternative Disability Index, Change from Baseline, Mean [3]: 0.021
SHAQ Alternative Disability Index, Percent Change from Baseline, Median [3]: −10.00%
SHAQ Alternative Disability Index, Change from Baseline, Mean (Pooled Cilnidipine 20 mg and Cilnidipine 20 mg + Tadalafil 5 mg (N = 8), Day 12, PP Population, Part A): −0.036
SHAQ Alternative Disability Index, Change from Baseline, Mean [4]: 0.031
SHAQ Alternative Disability Index, Change from Baseline, Mean (SD) [4]: 0.031 (0.1860)
SHAQ Alternative Disability Index, In-Clinic Visit (Day 12), Mean (SD) [4]: 0.391 (0.4884)
SHAQ Alternative Disability Index, Percent Change from Baseline, Mean (SD) [4]: 9.68 (61.446) %
SHAQ Alternative Disability Index, Percent Change from Baseline, Median [4]: −11.11%
% change in Alternative Disability Index (Pooled Cilnidipine (n = 7)): −13%
% Δ from baseline, alternative disability mean (Pooled cilnidipine (n=4)): −12.9%
